# Experimental data reported in ChEMBL document CHEMBL5385904, “Design, synthesis and biological evaluation of seco-DSP/DCK derivatives reversing P-glycoprotein-mediated paclitaxel resistance in A2780/T cells” (Eur J Med Chem, 2023).
# The source made the active and inactive calls. No cut-off for these calls is given here.
# Tests used:
# A2780/Taxol [1] = test: Reversal of multi-drug resistance in human A2780/Taxol cells at 10 to 20 uM incubated for 48 hrs by MTT assay; format: functional, cell-based; details: dose 10-20 µM
# A2780 [2] = test: Reversal of drug-sensitive human A2780 cells at 2.5 to 20 uM incubated for 48 hrs in presence of paclitaxel by MTT assay; format: functional, cell-based; details: dose 2.5-20 µM
# A2780 [3] = test: Cytotoxicity against human A2780 cells assessed as reduction in cell viability at 10 to 20 uM incubated for 48 hrs by MTT assay; format: functional, cell-based; details: dose 10-20 µM
# [4] = target: ATP-dependent translocase ABCB1 (Homo sapiens, UniProt P08183); test: Inhibition of P-gp in human A2780/Taxol cells assessed as paclitaxel accumulation in cells by measuring increase in fluorescence intensity at 5 to 20 uM incubated for 8 hrs; format: cell-based; details: dose 5-20 µM
# hERG (KCNH2) [5] = target: T1, hERG (KCNH2) (Homo sapiens, UniProt Q12809); test: Inhibition of hERG at 3 uM by patch clamp assay relative to control; format: toxicity
# A2780/Taxol [6] = test: Cytotoxicity against human A2780/Taxol cells assessed survival rate at 10 uM incubated for 48 hrs by MTT assay; format: functional
# A2780/Taxol [7] = test: Reversal of multi-drug resistance in human A2780/Taxol cells incubated for 48 hrs by MTT assay; format: functional, cell-based
# A2780/Taxol [8] = test: Reversal of multidrug resistance in human A2780/Taxol Cells assessed as reversal fold of paclitaxel IC50 at 10 uM incubated for 48 hrs by MTT assay; format: functional
# hERG (KCNH2) [9] = target: T1, hERG (KCNH2); test: Inhibition of hERG at 40 uM by patch clamp assay relative to control; format: toxicity
# [10] = target: Voltage-gated inwardly rectifying potassium channel KCNH2 (Homo sapiens, UniProt Q12809); test: Inhibition of hERG by patch clamp assay; format: toxicity
# [11] = Stability in human microsomal fraction preincubated for 10 mins followed by NADPH addition and measured upto 60 mins by LC-MS/MS analysis; format: ADME, microsomes, Microsome; details: time < 70 min, read-out: Stability
# T1 sequence (Q12809 whole entry): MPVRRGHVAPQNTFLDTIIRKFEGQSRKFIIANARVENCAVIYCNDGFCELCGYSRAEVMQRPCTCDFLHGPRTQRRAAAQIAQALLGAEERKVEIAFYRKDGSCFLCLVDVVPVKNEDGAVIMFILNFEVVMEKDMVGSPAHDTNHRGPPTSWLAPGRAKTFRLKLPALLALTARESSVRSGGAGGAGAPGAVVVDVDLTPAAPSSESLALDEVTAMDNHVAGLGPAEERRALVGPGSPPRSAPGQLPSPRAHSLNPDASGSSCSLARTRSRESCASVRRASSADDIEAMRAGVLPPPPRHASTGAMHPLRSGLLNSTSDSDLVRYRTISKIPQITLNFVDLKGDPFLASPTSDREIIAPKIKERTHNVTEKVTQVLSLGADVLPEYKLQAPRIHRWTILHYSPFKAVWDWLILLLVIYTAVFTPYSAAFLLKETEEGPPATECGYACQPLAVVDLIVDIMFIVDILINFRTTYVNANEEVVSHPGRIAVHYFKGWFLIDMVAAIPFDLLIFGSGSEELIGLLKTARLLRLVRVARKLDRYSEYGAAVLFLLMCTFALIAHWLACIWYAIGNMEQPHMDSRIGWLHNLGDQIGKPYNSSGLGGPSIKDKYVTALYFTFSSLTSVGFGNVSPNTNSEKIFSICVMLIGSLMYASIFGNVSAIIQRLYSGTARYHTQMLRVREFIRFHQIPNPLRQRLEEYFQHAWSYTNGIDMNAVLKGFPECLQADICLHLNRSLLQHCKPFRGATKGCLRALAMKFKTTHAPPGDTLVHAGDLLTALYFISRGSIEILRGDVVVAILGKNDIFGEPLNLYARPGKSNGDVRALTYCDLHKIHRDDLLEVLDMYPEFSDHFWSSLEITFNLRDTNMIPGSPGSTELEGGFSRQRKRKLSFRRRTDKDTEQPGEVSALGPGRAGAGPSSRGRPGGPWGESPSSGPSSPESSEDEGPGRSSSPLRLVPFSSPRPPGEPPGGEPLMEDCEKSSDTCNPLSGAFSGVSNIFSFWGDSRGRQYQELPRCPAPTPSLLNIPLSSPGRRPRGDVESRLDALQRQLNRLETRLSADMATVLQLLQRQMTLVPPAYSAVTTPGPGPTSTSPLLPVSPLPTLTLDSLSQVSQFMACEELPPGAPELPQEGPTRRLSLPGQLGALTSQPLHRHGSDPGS
# Sequence of Voltage-gated inwardly rectifying potassium channel KCNH2 (Q12809 whole entry): as above
# Sequence of ATP-dependent translocase ABCB1 (P08183 whole entry): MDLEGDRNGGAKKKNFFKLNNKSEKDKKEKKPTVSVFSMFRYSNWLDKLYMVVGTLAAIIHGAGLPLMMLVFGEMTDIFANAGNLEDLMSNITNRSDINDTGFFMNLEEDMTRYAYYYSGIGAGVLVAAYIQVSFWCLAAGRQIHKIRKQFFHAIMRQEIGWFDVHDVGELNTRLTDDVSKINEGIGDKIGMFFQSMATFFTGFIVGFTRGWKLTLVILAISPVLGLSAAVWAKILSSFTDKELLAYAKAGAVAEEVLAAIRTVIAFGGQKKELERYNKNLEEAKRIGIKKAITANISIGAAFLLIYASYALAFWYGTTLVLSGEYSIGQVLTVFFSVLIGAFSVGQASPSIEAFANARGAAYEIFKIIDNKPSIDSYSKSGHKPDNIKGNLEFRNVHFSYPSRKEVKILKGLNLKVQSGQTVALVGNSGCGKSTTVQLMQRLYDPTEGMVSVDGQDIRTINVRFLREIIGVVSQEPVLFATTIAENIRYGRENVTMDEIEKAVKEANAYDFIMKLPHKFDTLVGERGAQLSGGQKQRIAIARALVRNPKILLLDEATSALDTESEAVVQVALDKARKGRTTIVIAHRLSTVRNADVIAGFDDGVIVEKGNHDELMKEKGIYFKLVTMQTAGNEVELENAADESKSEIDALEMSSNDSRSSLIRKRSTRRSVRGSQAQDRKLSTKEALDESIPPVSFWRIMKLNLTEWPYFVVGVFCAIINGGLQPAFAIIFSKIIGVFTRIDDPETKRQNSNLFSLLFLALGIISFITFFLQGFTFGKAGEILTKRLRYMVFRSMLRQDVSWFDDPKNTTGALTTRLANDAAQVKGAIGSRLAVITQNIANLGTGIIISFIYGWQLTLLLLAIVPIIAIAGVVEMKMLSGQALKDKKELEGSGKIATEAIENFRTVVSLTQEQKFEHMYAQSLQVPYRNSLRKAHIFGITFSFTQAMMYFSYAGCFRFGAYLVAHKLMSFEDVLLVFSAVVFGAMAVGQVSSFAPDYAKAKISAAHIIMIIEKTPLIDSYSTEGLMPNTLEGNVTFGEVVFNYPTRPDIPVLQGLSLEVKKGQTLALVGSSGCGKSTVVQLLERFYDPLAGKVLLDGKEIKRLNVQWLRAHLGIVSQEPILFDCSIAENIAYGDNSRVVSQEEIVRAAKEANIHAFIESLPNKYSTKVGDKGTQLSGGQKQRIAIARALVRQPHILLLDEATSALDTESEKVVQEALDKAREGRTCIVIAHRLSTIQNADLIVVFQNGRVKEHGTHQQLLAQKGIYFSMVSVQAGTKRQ
SMILES,Cell survival rate (A2780/Taxol [6]) [%],IC50 (A2780/Taxol [7]) [nM],fold change (FC) (A2780/Taxol [8]),other results
COc1cc2c(cc1OC)CN(CCc1ccc(NC(=O)c3cc(OC)c(OC)cc3NC(=O)c3cnc4ccccc4c3)cc1)CC2 [TARIQUIDAR],–,–,–,Activity (A2780/Taxol [1]): Active; Activity (A2780 [2]): Active; Activity (A2780 [3]): Active; inhibition (INH) [4]: Active
COc1cc(N)c(Cl)cc1C(=O)NC1CCN(CCCOc2ccc(F)cc2)CC1OC (centres undefined) [CISAPRIDE],–,–,–,inhibition at 3 µM (hERG (KCNH2) [5]): 98%
COc1ccc(CCN(C)CCCC(C#N)(c2ccc(OC)c(OC)c2)C(C)C)cc1OC (centres undefined) [VERAPAMIL],81,–,–,Activity (A2780/Taxol [1]): Active; Activity (A2780 [2]): Active; Activity (A2780 [3]): Active
COc1ccc(/C=C/C(=O)OCc2c(OC(C)C)ccc3c(C)c(Cc4ccc(OC)cc4)c(=O)oc23)cc1,83,491,9,–
COc1ccc(/C=C/C(=O)OCc2c(OC(C)C)ccc3c(C)c(Cc4ccccc4)c(=O)oc23)cc1,86,233,19,–
COc1ccc(/C=C/C(=O)OCc2c(OC(C)C)ccc3c(C)c(Cc4ccc(F)cc4)c(=O)oc23)cc1,89,491,9,–
Cc1c(Cc2ccc(C#N)cc2)c(=O)oc2c(COC(=O)/C=C/c3ccccc3)c(OC(C)C)ccc12,91,210,21,–
COc1cc(CC(=O)OCc2c(OC(C)C)ccc3c(C)c(-c4ccccc4)c(=O)oc23)cc(OC)c1OC,97,43,101,–
COc1cc(CC(=O)NCc2c(OC(C)C)ccc3c(C)cc(=O)oc23)cc(OC)c1OC,90,1580,2.8,–
CCc1cc(=O)c2ccc(OC(C)C)c(CNC(=O)Cc3cc(OC)c(OC)c(OC)c3)c2o1,97,20,224,–
Cc1c(Cc2ccccc2)c(=O)oc2c(COC(=O)/C=C/c3ccccc3)c(OC(C)C)ccc12,95,276,16,–
CCc1cc(=O)c2ccc(OC(C)C)c(CNc3cc(OC)c(OC)c(OC)c3)c2o1,86,143,31,–
COc1ccc(/C=C/C(=O)OCc2c(OC(C)C)ccc3c(C)c(Cc4ccc(C(F)(F)F)cc4)c(=O)oc23)cc1,94,631,7,–
Cc1cc(=O)oc2c(CNC(=O)/C=C/c3ccccc3)c(OC(C)C)ccc12,87,294,15,–
Cc1c(Cc2ccccc2)c(=O)oc2c(COC(=O)c3ccccc3)c(OC(C)C)ccc12,81,62,71,–
COc1cc(CC(=O)OCc2c(OC(C)C)ccc3c(C)c(C)c(=O)oc23)cc(OC)c1OC,94,55,80,–
Cc1c(Cc2ccccc2)c(=O)oc2c(COC(=O)Cc3ccc(F)cc3)c(OC(C)C)ccc12,95,67,66,–
Cc1cc(=O)oc2c(C(=O)Nc3ccc(OC(F)(F)F)cc3)c(OC(C)C)ccc12,60,315,14,–
COc1cc(C(=O)OCc2c(OC(C)C)ccc3c(C)c(CCc4ccccc4)c(=O)oc23)cc(OC)c1OC,91,31,140,–
COc1ccccc1Cc1c(C)c2ccc(OC(C)C)c(COC(=O)Cc3cc(OC)c(OC)c(OC)c3)c2oc1=O,92,69,64,–
CCOc1ccc2c(C)c(Cc3ccc(OC)cc3)c(=O)oc2c1COC(=O)/C=C/c1ccc(OC)cc1,90,491,9,–
CCOc1ccc2c(C)cc(=O)oc2c1CNC(=O)/C=C/c1ccc(OC)cc1,96,29,150,inhibition at 40 µM (hERG (KCNH2) [9]): 32.5%; IC50 [10]: > 40000 nM; remaining at 1 h [11]: 44.3%
COc1cc(CC(=O)OCc2c(OC(C)C)ccc3c(C)c(Cc4cccc(F)c4)c(=O)oc23)cc(OC)c1OC,94,86,51,–
CCc1cc(=O)c2ccc(OC(C)C)c(CNC(=O)/C=C/c3ccc(OC)cc3)c2o1,79,31,142,remaining at 1 h [11]: 29.4%
CC(=O)O[C@H]1C(=O)[C@@]2(C)[C@H]([C@H](OC(=O)c3ccccc3)[C@]3(O)C[C@H](OC(=O)[C@H](O)[C@@H](NC(=O)c4ccccc4)c4ccccc4)C(C)=C1C3(C)C)[C@]1(OC(C)=O)CO[C@@H]1C[C@@H]2O [PACLITAXEL],–,4420,1,–

SMILES,Cell survival rate (A2780/Taxol [6]) [%],IC50 (A2780/Taxol [7]) [nM],fold change (FC) (A2780/Taxol [8]),other results
COc1cc(CC(=O)OCc2c(OC(C)C)ccc3c(C)c(CCc4ccccc4)c(=O)oc23)cc(OC)c1OC,93,88,50,–
CCOc1ccc2c(C)c(Cc3ccccc3)c(=O)oc2c1COC(=O)/C=C/c1ccc(OC)cc1,74,276,16,–
COc1cc(NC(=O)c2c(OC(C)C)ccc3c(C)cc(=O)oc23)cc(OC)c1OC,88,1590,2.8,–
Cc1c(Cc2ccccc2)c(=O)oc2c(COC(=O)c3ccc(F)cc3)c(OC(C)C)ccc12,82,86,51,–
COc1cc(CCC(=O)OCc2c(OC(C)C)ccc3c(C)c(Cc4ccccc4)c(=O)oc23)cc(OC)c1OC,90,53,82,–
COc1cc(CC(=O)OCc2c(OC(C)C)ccc3c(C)c(Cc4ccc(C(F)(F)F)cc4)c(=O)oc23)cc(OC)c1OC,81,94,47,–
Cc1c(Cc2ccc(C(F)(F)F)cc2)c(=O)oc2c(COC(=O)/C=C/c3ccccc3)c(OC(C)C)ccc12,99,401,11,–
CCc1cc(=O)c2ccc(OC(C)C)c(CNC(=O)/C=C/c3ccccc3)c2o1,74,192,23,–
COc1ccc(Cc2c(C)c3ccc(OC(C)C)c(COC(=O)Cc4cc(OC)c(OC)c(OC)c4)c3oc2=O)cc1,94,94,47,–
Cc1c(Cc2ccc(F)cc2)c(=O)oc2c(COC(=O)/C=C/c3ccccc3)c(OC(C)C)ccc12,90,294,15,–
COc1cc(CC(=O)OCc2c(OC(C)C)ccc3c(C)c(Cc4ccc(F)cc4)c(=O)oc23)cc(OC)c1OC,92,21,206,–
Cc1c(Cc2ccccc2)c(=O)oc2c(COC(=O)Cc3ccccc3)c(OC(C)C)ccc12,83,76,58,–
COc1ccc(Cc2c(C)c3ccc(OC(C)C)c(COC(=O)/C=C/c4ccccc4)c3oc2=O)cc1,94,3400,1.3,–
CCOc1ccc2c(C)c(Cc3ccc(F)cc3)c(=O)oc2c1COC(=O)/C=C/c1ccc(OC)cc1,92,340,13,–
COc1cc(CC(=O)OCc2c(OC(C)C)ccc3c(C)cc(=O)oc23)cc(OC)c1OC,94,107,41,–
COc1cc(CC(=O)OCc2c(OC(C)C)ccc3c(C)c(C(C)C)c(=O)oc23)cc(OC)c1OC,98,36,122,–
COc1cccc(Cc2c(C)c3ccc(OC(C)C)c(COC(=O)Cc4cc(OC)c(OC)c(OC)c4)c3oc2=O)c1,93,73,60,–
CCc1c(C)c2ccc(OC(C)C)c(COC(=O)Cc3cc(OC)c(OC)c(OC)c3)c2oc1=O,93,69,64,–
COc1cc(CC(=O)OCc2c(OC(C)C)ccc3c(C)c(Cc4ccccc4F)c(=O)oc23)cc(OC)c1OC,98,73,60,–
COc1cc(C(=O)OCc2c(OC(C)C)ccc3c(C)c(Cc4ccccc4)c(=O)oc23)cc(OC)c1OC,91,85,52,–
CCOc1ccc2c(=O)cc(CC)oc2c1CNC(=O)/C=C/c1ccc(OC)cc1,91,29,153,remaining at 1 h [11]: 11.8%
COc1cc(CC(=O)OCc2c(OC(C)C)ccc3c(C)c(Cc4ccc(C#N)cc4)c(=O)oc23)cc(OC)c1OC,81,88,50,–
CCOc1ccc2c(=O)cc(CC)oc2c1COC(=O)/C=C/c1ccc(OC)cc1,52,–,–,–
Cc1cc(=O)oc2c(C(=O)Nc3ccccc3)c(OC(C)C)ccc12,92,2760,1.6,–
